From PubChem BioAssay AID256 (DTP/NCI, 2004)
Several values for one entry are separate records, joined by “and”; a condition that tells them apart may be missing. Identical values can stand only once. Inconclusive results and toxic doses are left out. Rule for the calls: active = survival T/C of 150% or more; inactive = T/C below 125% in these data.

Tested on: CD2F1 mice, L1210 leukemia ip, survival T/C
Test: NCI In Vivo Anticancer Drug Screen. Data for tumor model L1210 Leukemia (intraperitoneal) in CD2F1 (CDF1) mice
Settings: higher = longer survival
How it was run: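 Compound-dosed mice with transplantable tumor versus matched vehicle controls; endpoint ratio T/C reported.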

[1] = endpoint: mean survival time, dose: 50.0 mg/kg/injection, schedule: Q04DX003 (ip), vehicle: saline
[2] = endpoint: mean survival time, dose: 100.0 mg/kg/injection, schedule: Q04DX003 (ip), vehicle: saline
[3] = endpoint: mean survival time, dose: 100.0 mg/kg/injection, schedule: Q01DX009 (ip), vehicle: saline with Tween-80
[4] = endpoint: mean survival time, dose: 100.0 mg/kg/injection, schedule: Q04DX003 (ip), vehicle: saline with Tween-80
[5] = endpoint: mean survival time, dose: 200.0 mg/kg/injection, schedule: Q01DX009 (ip), vehicle: saline with Tween-80
[6] = endpoint: mean survival time, dose: 200.0 mg/kg/injection, schedule: Q04DX003 (ip), vehicle: saline with Tween-80
[7] = endpoint: mean survival time, dose: 400.0 mg/kg/injection, schedule: Q04DX003 (ip), vehicle: saline with Tween-80
[8] = endpoint: mean survival time, dose: 25.0 mg/kg/injection, schedule: Q04DX002 (ip), vehicle: saline with Tween-80
[9] = endpoint: mean survival time, dose: 50.0 mg/kg/injection, schedule: Q04DX002 (ip), vehicle: saline with Tween-80
[10] = endpoint: mean survival time, dose: 100.0 mg/kg/injection, schedule: Q04DX002 (ip), vehicle: saline with Tween-80
[11] = endpoint: mean survival time, dose: 75.0 mg/kg/injection, schedule: Q01DX001 (ip), vehicle: saline
[12] = endpoint: mean survival time, dose: 150.0 mg/kg/injection, schedule: Q01DX001 (ip), vehicle: saline
[13] = endpoint: mean survival time, dose: 50.0 mg/kg/injection, schedule: Q01DX009 (ip), vehicle: saline with Tween-80
[14] = endpoint: mean survival time, dose: 100.0 mg/kg/injection, schedule: Q01DX001 (ip), vehicle: saline
[15] = endpoint: mean survival time, dose: 200.0 mg/kg/injection, schedule: Q01DX001 (ip), vehicle: saline
[16] = endpoint: mean survival time, dose: 400.0 mg/kg/injection, schedule: Q01DX001 (ip), vehicle: saline

Measured: T/C

CN(C)c1nc(Cl)cc2c1ncn2C1OC(CO)C(O)C1O (stereo not given)
inactive: endpoint: mean survival time, dose: 100.0 mg/kg/injection, schedule: Q01DX005 (ip), vehicle: saline 117 % of control

Cc1c2ccncc2c(C)c2c1[nH]c1ccc(Br)cc12
inactive: [1] 101 % of control | [2] 101 % of control | endpoint: mean survival time, dose: 200.0 mg/kg/injection, schedule: Q04DX003 (ip), vehicle: saline 103 % of control | endpoint: mean survival time, dose: 400.0 mg/kg/injection, schedule: Q04DX003 (ip), vehicle: saline 103 % of control

CC1=NN(c2ccc(S(=O)(=O)O)cc2)C(=O)C1
inactive: [3] 93 % of control | [4] 96 % of control | [5] 87 % of control | [6] 104 % of control | [7] 98 % of control

CCC(=O)O/N=C(\c1ccccc1)c1cccnc1
inactive: endpoint: mean survival time, dose: 100.0 mg/kg/injection, schedule: Q01DX001 (ip), vehicle: other 113 % of control | endpoint: mean survival time, dose: 200.0 mg/kg/injection, schedule: Q01DX001 (ip), vehicle: other 98 % of control | endpoint: mean survival time, dose: 400.0 mg/kg/injection, schedule: Q01DX001 (ip), vehicle: other 101 % of control

O=C1CCc2ccsc21
inactive: [8] 98 % of control | [9] 91 % of control | [10] 106 % of control

CC(CN=[N+]=[N-])OC(=O)C(F)(F)F (stereo not given)
inactive: endpoint: mean survival time, dose: 37.5 mg/kg/injection, schedule: Q01DX009 (ip), vehicle: saline 94 % of control | [11] 98 % of control | endpoint: mean survival time, dose: 75.0 mg/kg/injection, schedule: Q01DX009 (ip), vehicle: saline 94 % of control | [12] 101 % of control

Nc1ccccc1Sc1ccc2c3c(cccc13)C(=O)N(c1ccccc1)C2=O
inactive: [8] 95 % of control | [9] 98 % of control | [10] 87 % of control

O=C(O)C(O)C(O)C(O)C(O)C(O)CO (stereo not given)
inactive: endpoint: mean survival time, dose: 100.0 mg/kg/injection, schedule: Q01DX009 (ip), vehicle: saline 98 % of control | endpoint: mean survival time, dose: 200.0 mg/kg/injection, schedule: Q01DX009 (ip), vehicle: saline 98 % of control | endpoint: mean survival time, dose: 400.0 mg/kg/injection, schedule: Q01DX009 (ip), vehicle: saline 97 % of control

O=C(N/N=C/c1ccccc1)c1ccccc1O
inactive: endpoint: mean survival time, dose: 100.0 mg/kg/injection, schedule: Q01DX009 (ip), vehicle: Klucel (hydroxypropylcellulose) (HPC) 96 % of control | endpoint: mean survival time, dose: 100.0 mg/kg/injection, schedule: Q04DX003 (ip), vehicle: Klucel (hydroxypropylcellulose) (HPC) 100 % of control | endpoint: mean survival time, dose: 200.0 mg/kg/injection, schedule: Q01DX009 (ip), vehicle: Klucel (hydroxypropylcellulose) (HPC) 97 % of control | endpoint: mean survival time, dose: 200.0 mg/kg/injection, schedule: Q04DX003 (ip), vehicle: Klucel (hydroxypropylcellulose) (HPC) 94 % of control | endpoint: mean survival time, dose: 400.0 mg/kg/injection, schedule: Q01DX009 (ip), vehicle: Klucel (hydroxypropylcellulose) (HPC) 94 % of control | endpoint: mean survival time, dose: 400.0 mg/kg/injection, schedule: Q04DX003 (ip), vehicle: Klucel (hydroxypropylcellulose) (HPC) 94 % of control

Cc1cn(C2OC3COC2C3O)c(=O)[nH]c1=O (stereo not given)
inactive: endpoint: median survival time, dose: 12.5 mg/kg/injection, schedule: Q01DX005 (ip), vehicle: saline with Tween-80 97 % of control | endpoint: median survival time, dose: 25.0 mg/kg/injection, schedule: Q01DX005 (ip), vehicle: saline with Tween-80 97 % of control | endpoint: median survival time, dose: 50.0 mg/kg/injection, schedule: Q01DX005 (ip), vehicle: saline with Tween-80 94 % of control | endpoint: median survival time, dose: 100.0 mg/kg/injection, schedule: Q01DX005 (ip), vehicle: saline with Tween-80 102 % of control | endpoint: median survival time, dose: 200.0 mg/kg/injection, schedule: Q01DX005 (ip), vehicle: saline with Tween-80 105 % of control

O=C(Nc1ccc(Cl)c(C(F)(F)F)c1)Nc1c(Oc2ccc(Cl)c(Cl)c2)ccc(Cl)c1S(=O)(=O)O
inactive: endpoint: mean survival time, dose: 12.5 mg/kg/injection, schedule: Q01DX009 (ip), vehicle: saline 100 % of control | endpoint: mean survival time, dose: 25.0 mg/kg/injection, schedule: Q01DX009 (ip), vehicle: saline 98 % of control | endpoint: mean survival time, dose: 50.0 mg/kg/injection, schedule: Q01DX009 (ip), vehicle: saline 100 % of control

c1ccc2c(c1)nnc1ccccc12
inactive: [3] 100 % of control | [5] 110 % of control | endpoint: mean survival time, dose: 400.0 mg/kg/injection, schedule: Q01DX009 (ip), vehicle: saline with Tween-80 110 % of control

Cc1c2cnccc2c(C)c2c1c1ccccc1n2CCCCCCCl
inactive: [4] 91 % of control | [6] 101 % of control

CCC1(CC)C=CCC/C1=N\NS(=O)(=O)c1ccc(C)cc1
inactive: [13] 95 % of control | [3] 90 % of control | [4] 95 % of control | [5] 93 % of control | [6] 91 % of control

O=c1oc(-c2ccc(OCc3ccccc3)c(OCc3ccccc3)c2)c2c3ccccc3ccn12
inactive: endpoint: median survival time, dose: 25.0 mg/kg/injection, schedule: Q04DX003 (ip), vehicle: saline with Tween-80 88 % of control | endpoint: median survival time, dose: 50.0 mg/kg/injection, schedule: Q04DX003 (ip), vehicle: saline with Tween-80 88 % of control | endpoint: median survival time, dose: 100.0 mg/kg/injection, schedule: Q04DX003 (ip), vehicle: saline with Tween-80 88 % of control | endpoint: median survival time, dose: 200.0 mg/kg/injection, schedule: Q04DX003 (ip), vehicle: saline with Tween-80 100 % of control

Cc1cc(C)c(CC(C)C)c(C)c1
inactive: [14] 98 % of control | [15] 98 % of control | [16] 98 % of control

Cc1ccc(OCCOc2ccc([N+](=O)[O-])cc2)cc1
inactive: endpoint: mean survival time, dose: 200.0 mg/kg/injection, schedule: Q04DX003 (ip), vehicle: other 92 % of control | endpoint: mean survival time, dose: 400.0 mg/kg/injection, schedule: Q04DX003 (ip), vehicle: other 90 % of control

CC(C)(C)OC(=O)NC(CCC(=O)OCc1ccccc1)C(=O)O (stereo not given) (tested in a mixture with another compound)
inactive: endpoint: mean survival time, dose: 25.0 mg/kg/injection, schedule: Q01DX009 (ip), vehicle: saline with Tween-80 91 % of control | [3] 96 % of control and 98 % of control

CCOC(=O)C1CC1C(=O)OC (stereo not given)
inactive: [13] 90 % of control | [3] 88 % of control | [5] 92 % of control

C=C1C(=O)OCC1C(=O)O (stereo not given)
inactive: endpoint: mean survival time, dose: 4.0 mg/kg/injection, schedule: Q01DX009 (ip), vehicle: saline 97 % of control and 106 % of control | endpoint: mean survival time, dose: 8.0 mg/kg/injection, schedule: Q01DX009 (ip), vehicle: saline 96 % of control and 101 % of control | endpoint: mean survival time, dose: 16.0 mg/kg/injection, schedule: Q01DX009 (ip), vehicle: saline 101 % of control and 110 % of control | endpoint: mean survival time, dose: 32.0 mg/kg/injection, schedule: Q01DX009 (ip), vehicle: saline 104 % of control and 110 % of control | endpoint: mean survival time, dose: 64.0 mg/kg/injection, schedule: Q01DX009 (ip), vehicle: saline 88 % of control

O=C1C2C3C=CC(O3)C2C(=O)N1Cc1ccncc1 (stereo not given)
inactive: [14] 108 % of control | [15] 100 % of control | [16] 101 % of control

O=c1[nH]c2ccc(I)cc2c(=O)o1
inactive: [4] 101 % of control | [6] 98 % of control | [7] 104 % of control

CS/C([S-])=N/N=C\c1ccccn1.CS/C([S-])=N/N=C\c1ccccn1.[Ni+2]
inactive: [4] 97 % of control | [6] 96 % of control | [7] 96 % of control

CCOC(=O)C[S+](C)C
inactive: [11] 90 % of control | [12] 93 % of control

COc1cc2c3c(c1)-c1c(ccc(OC)c1OC)CC3N(CCN(CCCl)CCCl)CC2 (stereo not given)
inactive: endpoint: mean survival time, dose: 6.25 mg/kg/injection, schedule: Q04DX003 (ip), vehicle: saline 101 % of control | endpoint: mean survival time, dose: 12.5 mg/kg/injection, schedule: Q04DX003 (ip), vehicle: saline 98 % of control | endpoint: mean survival time, dose: 25.0 mg/kg/injection, schedule: Q04DX003 (ip), vehicle: saline 101 % of control | [1] 101 % of control | [2] 87 % of control
